Laboratory results from US8598202B2, “Aryl-hydroxyethylamino-pyrimidines and triazines as modulators of fatty acid amide hydrolase” (Janssen Pharmaceutica NV, priority 2008, dated 2013).

Columns and labels:
spasticity = conditions: Baker 2001; cited from earlier work
[1] = test system: acute thermal nociception; conditions: rats; WO 02/087569; cited from earlier work
neuropathic pain = conditions: rats; WO 02/087569; cited from earlier work
FAAH [2] = target: T1, FAAH (Homo sapiens, UniProt O00519); experiment: Assay Method 1: FAAH assay, 3H-anandamide hydrolysis in homogenate of T84 cells or SK-N-MC cells transfected with human FAAH
T1 sequence (O00519 1-579): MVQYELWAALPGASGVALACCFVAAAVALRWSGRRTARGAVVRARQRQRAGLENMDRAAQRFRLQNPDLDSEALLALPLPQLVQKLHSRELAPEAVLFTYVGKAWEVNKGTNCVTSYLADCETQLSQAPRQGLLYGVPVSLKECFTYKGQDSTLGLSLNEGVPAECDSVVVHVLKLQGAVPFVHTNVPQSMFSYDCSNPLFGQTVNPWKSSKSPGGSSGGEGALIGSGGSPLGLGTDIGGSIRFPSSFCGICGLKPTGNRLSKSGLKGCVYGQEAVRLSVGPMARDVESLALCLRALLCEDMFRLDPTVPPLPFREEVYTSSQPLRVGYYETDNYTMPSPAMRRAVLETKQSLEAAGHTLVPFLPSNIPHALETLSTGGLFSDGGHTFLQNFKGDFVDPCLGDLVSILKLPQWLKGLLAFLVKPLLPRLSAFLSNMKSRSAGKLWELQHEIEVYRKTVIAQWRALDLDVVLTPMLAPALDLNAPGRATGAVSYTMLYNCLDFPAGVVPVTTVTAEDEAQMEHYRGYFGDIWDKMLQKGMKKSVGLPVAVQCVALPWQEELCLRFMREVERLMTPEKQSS

Rat FAAH-1 = target: T2, Rat FAAH-1 (Rattus norvegicus, UniProt P97612); experiment: Assay Method 2: rat FAAH-1 assay, 3H-anandamide hydrolysis in homogenate of SK-N-MC cells transfected with rat FAAH
T2 sequence (P97612 1-579): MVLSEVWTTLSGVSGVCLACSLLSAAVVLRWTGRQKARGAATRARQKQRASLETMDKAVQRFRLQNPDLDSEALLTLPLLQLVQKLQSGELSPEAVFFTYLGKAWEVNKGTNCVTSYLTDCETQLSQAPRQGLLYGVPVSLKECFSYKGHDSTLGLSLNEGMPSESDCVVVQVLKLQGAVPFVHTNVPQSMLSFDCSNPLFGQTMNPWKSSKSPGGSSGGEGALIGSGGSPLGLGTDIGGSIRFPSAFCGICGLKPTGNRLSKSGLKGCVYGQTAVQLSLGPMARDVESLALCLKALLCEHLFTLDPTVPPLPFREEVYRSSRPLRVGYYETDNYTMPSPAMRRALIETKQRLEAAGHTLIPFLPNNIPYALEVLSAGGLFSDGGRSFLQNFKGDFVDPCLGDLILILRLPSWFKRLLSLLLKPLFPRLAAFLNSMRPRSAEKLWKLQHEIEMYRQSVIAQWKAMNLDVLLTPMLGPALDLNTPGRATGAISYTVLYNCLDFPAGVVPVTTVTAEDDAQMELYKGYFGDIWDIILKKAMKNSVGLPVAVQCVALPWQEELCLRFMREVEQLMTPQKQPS
Procedure: The assay mixture consisted of 50 μL of the cell homogenate, 10 μL of the test compound, and 40 μL of anandamide [1-^3H-ethanolamine] (^3H-AEA, Perkin-Elmer, 10.3 Ci/mmol), which was added last, for a final tracer concentration of 80 nM. The reaction mixture was incubated at rt for 1 h. During the incubation, 96-well Multiscreen filter plates (catalog number MAFCNOB50; Millipore, Bedford, Mass., USA) were loaded with 25 μL of activated charcoal (Multiscreen column loader, catalog number MACL09625, Millipore) and washed once with 100 μL of MeOH. […] After the 1 h incubation, 60 μL of the reaction mixture were transferred to the charcoal plates, which were then assembled on top of the DYNEX plates using Centrifuge Alignment Frames (catalog number MACF09604, Millipore). The unbound labeled ethanolamine was centrifuged through to the bottom plate (5 min at 2000 rpm), which was preloaded with the scintillant, as described above. The plates were sealed and left at rt for 1 h before counting on a Hewlett Packard TopCount.

FAAH [3] = target: T1, FAAH; conditions: reported; cited from earlier work
thermal nociception [4] = conditions: rat; cited from earlier work
thermal nociception [5] = conditions: rats; WO 04/033652; cited from earlier work
nociception = conditions: rat; Kathuria 2003; cited from earlier work
anxiety = conditions: rats; Kathuria 2003; cited from earlier work

## CCCCCCCCCCCCCCCCS(=O)(=O)F [AM374]
spasticity
  reduction of spasticity in CREAE mice: significantly reduce spasticity

## Cc1nc(-c2ccccc2)c(-c2ccccc2)n1CCCCCCNC(=O)Oc1ccccc1F [BMS-1]
[1]
  analgesic effect in Hargraves test: analgesic effect
Neuropathic pain
  analgesic effect in Chung spinal nerve ligation model: analgesic effect

## CC(=O)c1ccc(-c2cc(NCC(O)c3ccccc3)ncn2)cc1 (stereo not shown) [Example 228, 1-(4-{6-[(2-Hydroxy-2-phenylethyl)amino]pyrimidin-4-yl}phenyl)ethanone]
FAAH [2]
  IC50: 0.026 µM
Rat FAAH-1
  IC50: 0.066 µM

## OC(CNc1cc(-c2ccc3c(c2)OCO3)ncn1)c1ccccc1 (stereo not shown) [Example 232, 2-(6-Benzo[1,3]dioxol-5-yl-pyrimidin-4-ylamino)-1-phenyl-ethanol]
FAAH [2]
  IC50: 0.15 µM
Rat FAAH-1
  IC50: 1 µM

## O=[N+]([O-])c1cccc(-c2cc(NCC(O)c3ccccc3)ncn2)c1 (stereo not shown) [Example 234, 2-[6-(3-Nitro-phenyl)-pyrimidin-4-ylamino]-1-phenyl-ethanol]
FAAH [2]
  IC50: > 10 µM
Rat FAAH-1
  IC50: > 10 µM

## OC(CNc1cc(-c2ccc3ccccc3c2)ncn1)c1ccccc1 (stereo not shown) [Example 235, 2-[(6-Naphthalen-2-ylpyrimidin-4-yl)amino]-1-phenylethanol]
FAAH [2]
  IC50: 0.021 µM
Rat FAAH-1
  IC50: 0.324 µM

## CC(=O)c1ccc(-c2cc(NCC(O)c3ccccc3)ncn2)s1 (stereo not shown) [Example 236, 1-{5-[6-(2-Hydroxy-2-phenyl-ethylamino)-pyrimidin-4-yl]-thiophen-2-yl}-ethanone]
FAAH [2]
  IC50: 0.7 µM
Rat FAAH-1
  IC50: 4 µM

## OC(CNc1cc(-c2c(F)cccc2F)ncn1)c1ccccc1 (stereo not shown) [Example 237, 2-[6-(2,6-Difluoro-phenyl)-pyrimidin-4-ylamino]-1-phenyl-ethanol]
FAAH [2]
  IC50: > 10 µM
Rat FAAH-1
  IC50: > 10 µM

## Oc1ccc(-c2cc(NCC(O)c3ccccc3)ncn2)cc1 (stereo not shown) [Example 238, 4-[6-(2-Hydroxy-2-phenyl-ethylamino)-pyrimidin-4-yl]-phenol]
FAAH [2]
  IC50: 7 µM
Rat FAAH-1
  IC50: > 10 µM

## OC(CNc1cc(-c2cc(C(F)(F)F)cc(C(F)(F)F)c2)ncn1)c1ccccc1 (stereo not shown) [Example 239, 2-[6-(3,5-Bis-trifluoromethyl-phenyl)-pyrimidin-4-ylamino]-1-phenyl-ethanol]
FAAH [2]
  IC50: > 10 µM
Rat FAAH-1
  IC50: > 10 µM

## CC(=O)Nc1cccc(-c2cc(NCC(O)c3ccccc3)ncn2)c1 (stereo not shown) [Example 242, N-{3-[6-(2-Hydroxy-2-phenyl-ethylamino)-pyrimidin-4-yl]-phenyl}-acetamide]
FAAH [2]
  IC50: > 10 µM
Rat FAAH-1
  IC50: > 10 µM

## OC(CNc1cc(-c2cccs2)ncn1)c1ccccc1 (stereo not shown) [Example 244, 1-Phenyl-2-(6-thiophen-2-yl-pyrimidin-4-ylamino)-ethanol]
FAAH [2]
  IC50: > 10 µM
Rat FAAH-1
  IC50: > 10 µM

## OC(CNc1cc(-c2ccsc2)ncn1)c1ccccc1 (stereo not shown) [Example 245, 1-Phenyl-2-(6-thiophen-3-yl-pyrimidin-4-ylamino)-ethanol]
FAAH [2]
  IC50: > 10 µM
Rat FAAH-1
  IC50: > 10 µM

## O=C(CCCCCCc1ccccc1)c1ncc(-c2ccccn2)o1 [OL-135]
FAAH [3]
  inhibition of FAAH: potent inhibitor
Thermal nociception [4]
  analgesic efficacy/activity in hot plate test: analgesic activity
Thermal nociception [5]
  analgesic activity in tail emersion test: analgesic activity

## NC(=O)c1cccc(-c2cccc(OC(=O)NC3CCCCC3)c2)c1 [URB-597]
nociception
  analgesic efficacy in formalin test: analgesic efficacy
Thermal nociception [4]
  analgesic efficacy/activity in hot plate test: analgesic efficacy
anxiety
  efficacy in zero plus maze model of anxiety: efficacy
